In patent publication US20250134848A1, “METHOD OF ADMINISTRATION OF […] THE INDUCTION OF TUMOR ASSOCIATED ANTIGENS” (BryoLogyx Inc., priority 2022, published 2025):

Experiments:
CD19 = CD19 expression in human PBMC, antibody binding capacity by flow cytometry; assay type: cell-based; conditions: FIG. 1
Procedure: (§1) The ability of bryostatin-1 to promote antigen expression was evaluated in vitro. Human peripheral blood mononuclear cells (PBMC) were cultured according to previously published methods (Ramakrishna et al., 2019). Briefly, cells were washed and then treated with either bryostatin-1 (1 nM) or DMSO (vehicle control) for different times as indicated, ranging from 45 min to 24 hrs. Antibody binding capacity (ABC) was measured by flow cytometry (NCI flow lab); and plotted (FIGS. 1 and 2), either directly or as fold change over DMSO/vehicle control.

CD22 [1] = assay: CD22 expression in human PBMC, antibody binding capacity by flow cytometry; assay type: cell-based; conditions: FIG. 2
Procedure: as §1

CD19 and CD22 = assay: Changes in expression of CD19 and CD22 in tumor cell lines and human cells after varying exposure times; assay type: cell-based
Procedure: We have shown that short exposure to bryostatin-1 in vitro is sufficient to elevate tumor-associated antigen expression. In experiments performed on numerous tumor cell lines and human cells, bryostatin-1 was administered for varying periods of time, ranging from 45 min to 24 hrs, and changes in the expression of CD19 and CD22 were measured. […] This elevation took time to become evident and was maximal at 72 h.

antigen expression = conditions: FIGS. 3A and 3B; Ramakrishna et al. 2019; cited from earlier work
[2] = system: tumor associated antigen expression; conditions: animal experiments; cited from earlier work
CD22 [3] = conditions: B-cell tumors such as ALL and CLL; cited from earlier work
[4] = 1 nM, 45 min vs 3 hrs or 24 hrs
[5] = bryostatin-1 1 nM for 45 min, 3 hrs or 24 hrs

Structure (SMILES): CCC/C=C/C=C/C(=O)O[C@H]1/C(=C/C(=O)OC)C[C@H]2C[C@H]([C@@H](C)O)OC(=O)C[C@H](O)C[C@@H]3C[C@H](OC(C)=O)C(C)(C)[C@](O)(C[C@@H]4C/C(=C/C(=O)OC)C[C@H](/C=C/C(C)(C)[C@]1(O)O2)O4)O3 [bryostatin-1]
- elevation of CD19 after 45 min incubation compared with longer incubations (CD19; [4]): same elevation in antigens as longer incubations
- expression of CD19 (CD19; [5]): increases in expression of CD19
- elevation of CD22 after 45 min incubation compared with longer incubations (CD22 [1]; [4]): same elevation in antigens as longer incubations
- expression of CD22 (CD22 [1]; [5]): increases in expression of CD22
- time at which elevation of antigen expression was maximal (CD19 and CD22; exposure 45 min to 24 hrs): 72 h
- increase in antigen expression after short exposure (45 min) compared with 3 h or 24 h exposure (CD19 and CD22; tumor cell lines and human cells, in vitro): same level of increase in antigen expression as 3 h or 24 h exposure
- time for which the increase in antigen expression remains elevated (antigen expression): 7 days
- tumor associated antigen expression after a single intraperitoneal administration [2]: able to induce an elevation of tumor associated antigen expression
- cell-surface expression of CD22 (CD22 [3]): increase cell-surface expression of CD22
